System: 463943-066-T-J2-PDC tumor spheroids with HUVEC/MSC, viability
Experiment: Anticancer human tumor 463943-066-T-J2-PDC patient-derived colon adenocarcinoma cell line growth inhibition [TAK]
Settings: for IC50: curve of first compound; for viability, T/C: stronger effect = lower value
Source text: Combinatorial screen of targeted agents with TAK-243 and ipatasertib in multi-cell type tumor spheroids
A high-throughput screen of multi-cell type tumor spheroids was designed to identify active combinations of targeted small molecules and TAK-243 or ipatasertib. Complex spheroids include a stromal component modeled by human endothelial cells (HUVEC) and fibroblasts modeled by human mesenchymal stem cells (MSCs). The concentration ranges selected for each drug and investigational agent were based upon clinically achievable concentrations if the clinical Cmax of the agent was known.
Compounds. The drugs and investigational agents: TAK-243 (785004), ipatasertib (767898), everolimus (733504), selumetinib (741078), bortezomib (756655), trametinib (758246), ixazomib (758254), vemurafenib (761431), dabrafenib (764134), sapanisertib (764658), alpelisib (765974), and copanlisib (816437), were obtained from the National Cancer Institute (NCI) Developmental Therapeutics Program Chemical Repository. The FDA-approved anticancer drug set is available from the NCI Developmental Therapeutics Program. […] The stock solutions were prepared in dimethyl sulfoxide (DMSO, Sigma-Aldrich, St. Louis, MO, cat. D2650) at 800-fold the tested concentration and stored at -70 degrees C prior to their use. All drugs and investigational agents were tested over a range starting from a high concentration at or near the clinical Cmax and decreasing in half-log increments. If the clinical Cmax for an agent had not been determined, the highest concentration tested was 10 microM.
NCI60 Cell Culture. NCI60 cell lines were obtained from the NCI Developmental Therapeutics Program Tumor Repository. For each lot of cells, the Repository performed Applied Biosystems AmpFLSTR Identifiler testing with PCR amplification to confirm consistency with the published Identifier STR profile for each cell line. Cells were kept in continuous culture for no more than 20 passages. The optimal seeding densities for each of the cell lines at each time point assessed were determined prior to performing the concentration response studies. Briefly, the NCI60 human tumor lines were grown as monolayers in RPMI 1640 medium supplemented with 10% FBS and 2 mmol/L L-glutamine.
An additional 2 lines were from the NCI60 cell line panel including melanomas, MALME-3M and SK-MEL-2. Pooled donor human umbilical vein endothelial cells (HUVEC, Lonza, cat. CC-2519) and human mesenchymal stem cells (hMSC, Lonza, cat. PT-2501) were purchased from Lonza (Walkersville, MD).
PDMR cell lines were grown in complete medium (DC medium): Dulbecco's modified Eagle's medium (DMEM)/F12 supplemented with 5% fetal bovine serum (FBS), 2 mM L-glutamine, 100 U/mL penicillin and 100 µg/ml streptomycin, 0.4 µg/ml hydrocortisone, 10 ng/ml epidermal growth factor (EGF) recombinant human protein, 24 µg/mL adenine, and 0.1 mg/mL primocin. During culture from frozen stock vials, PDMR cells were cultured in the same medium containing 10 µM Y-27632 (see Table 3). The PDCs were cultured in complete DMEM/F12 media without 10 microM Y-27632 dihydrochloride for at least two passages prior to the screen. The pooled donor HUVEC and hMSC were cultured in endothelial cell growth medium 2 (PromoCell, Heidelberg, Germany, cat. C-22011) and mesenchymal stem cell growth medium 2 (PromoCell, cat. C-28009), respectively. For all experiments, HUVEC and hMSC were used at passages </=5.
For the pre-screen, cell seeding densities were determined from a titration spanning the range from 5,000 to 313 cells per well. The mct-spheroids including 60% malignant cells, 25% HUVEC and 15% MSC dispensed as a mixture into U-bottom Ultra-Low Attachment 384-well plates (Corning, NY)
High-throughput Drug Combination Screening.
Prior to their inoculation into 384-well plates, malignant cells, HUVEC, and hMSC were removed from T flasks using TrypLE express (Thermo Fisher Scientific, cat. 12605036) and harvested by centrifugation for 5 min at 233 x g. […]
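Note: spheroids exposed to drugs for seven days.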
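Throughout, for viability, T/C: 100% = DMSO vehicle control wells.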

## CC(=O)Nc1cccc(-n2c(=O)n(C3CC3)c(=O)c3c(Nc4ccc(I)cc4F)n(C)c(=O)c(C)c32)c1 + CC(C)NCC(C(=O)N1CCN(c2ncnc3c2C(C)CC3O)CC1)c1ccc(Cl)cc1
Second compound 0.3 µM
  IC50: > 30 nM
Second compound 0.949 µM
  IC50: > 30 nM
Second compound 3 µM
  IC50: > 30 nM
Second compound 9.49 µM
  IC50: > 30 nM
Second compound 30 µM
  IC50: > 30 nM
Second compound 0.3 µM, first compound 94.9 pM
  viability, T/C: 98.7%
Second compound 0.3 µM, first compound 0.0003 µM
  viability, T/C: 94.3%
Second compound 0.3 µM, first compound 0.000949 µM
  viability, T/C: 83.2%
Second compound 0.3 µM, first compound 0.003 µM
  viability, T/C: 82.2%
Second compound 0.3 µM, first compound 0.00949 µM
  viability, T/C: 71.5%
Second compound 0.3 µM, first compound 0.03 µM
  viability, T/C: 65.2%
Second compound 0.949 µM, first compound 94.9 pM
  viability, T/C: 95.2%
Second compound 0.949 µM, first compound 0.0003 µM
  viability, T/C: 91.5%
Second compound 0.949 µM, first compound 0.000949 µM
  viability, T/C: 84.1%
Second compound 0.949 µM, first compound 0.003 µM
  viability, T/C: 83.9%
Second compound 0.949 µM, first compound 0.00949 µM
  viability, T/C: 77.2%
Second compound 0.949 µM, first compound 0.03 µM
  viability, T/C: 61.2%
Second compound 3 µM, first compound 94.9 pM
  viability, T/C: 96.1%
Second compound 3 µM, first compound 0.0003 µM
  viability, T/C: 96.3%
Second compound 3 µM, first compound 0.000949 µM
  viability, T/C: 87.2%
Second compound 3 µM, first compound 0.003 µM
  viability, T/C: 84.4%
Second compound 3 µM, first compound 0.00949 µM
  viability, T/C: 72%
Second compound 3 µM, first compound 0.03 µM
  viability, T/C: 57%
Second compound 9.49 µM, first compound 94.9 pM
  viability, T/C: 88%
Second compound 9.49 µM, first compound 0.0003 µM
  viability, T/C: 99%
Second compound 9.49 µM, first compound 0.000949 µM
  viability, T/C: 90.3%
Second compound 9.49 µM, first compound 0.003 µM
  viability, T/C: 79.5%
Second compound 9.49 µM, first compound 0.00949 µM
  viability, T/C: 72.3%
Second compound 9.49 µM, first compound 0.03 µM
  viability, T/C: 62.7%
Second compound 30 µM, first compound 94.9 pM
  viability, T/C: 91.4%
Second compound 30 µM, first compound 0.0003 µM
  viability, T/C: 90.3%
Second compound 30 µM, first compound 0.000949 µM
  viability, T/C: 87.1%
Second compound 30 µM, first compound 0.003 µM
  viability, T/C: 80.6%
Second compound 30 µM, first compound 0.00949 µM
  viability, T/C: 69.1%
Second compound 30 µM, first compound 0.03 µM
  viability, T/C: 53.6%

## CC(C)CC(NC(=O)C(Cc1ccccc1)NC(=O)c1cnccn1)B(O)O (stereo not given) + CC(C)NCC(C(=O)N1CCN(c2ncnc3c2C(C)CC3O)CC1)c1ccc(Cl)cc1
Second compound 0.3 µM
  IC50: > 10 nM
Second compound 0.949 µM
  IC50: > 10 nM
Second compound 3 µM
  IC50: > 10 nM
Second compound 9.49 µM
  IC50: > 10 nM
Second compound 30 µM
  IC50: > 10 nM
Second compound 0.3 µM, first compound 31.6 pM
  viability, T/C: 98.3%
Second compound 0.3 µM, first compound 0.0001 µM
  viability, T/C: 99.2%
Second compound 0.3 µM, first compound 0.000316 µM
  viability, T/C: 92.3%
Second compound 0.3 µM, first compound 0.001 µM
  viability, T/C: 91.4%
Second compound 0.3 µM, first compound 0.00316 µM
  viability, T/C: 93.1%
Second compound 0.3 µM, first compound 0.01 µM
  viability, T/C: 84.1%
Second compound 0.949 µM, first compound 31.6 pM
  viability, T/C: 89.1%
Second compound 0.949 µM, first compound 0.0001 µM
  viability, T/C: 81.8%
Second compound 0.949 µM, first compound 0.000316 µM
  viability, T/C: 89.4%
Second compound 0.949 µM, first compound 0.001 µM
  viability, T/C: 84.3%
Second compound 0.949 µM, first compound 0.00316 µM
  viability, T/C: 85.2%
Second compound 0.949 µM, first compound 0.01 µM
  viability, T/C: 77.3%
Second compound 3 µM, first compound 31.6 pM
  viability, T/C: 90.5%
Second compound 3 µM, first compound 0.0001 µM
  viability, T/C: 96%
Second compound 3 µM, first compound 0.000316 µM
  viability, T/C: 97.3%
Second compound 3 µM, first compound 0.001 µM
  viability, T/C: 94.4%
Second compound 3 µM, first compound 0.00316 µM
  viability, T/C: 78.5%
Second compound 3 µM, first compound 0.01 µM
  viability, T/C: 81.8%
Second compound 9.49 µM, first compound 31.6 pM
  viability, T/C: 85.4%
Second compound 9.49 µM, first compound 0.0001 µM
  viability, T/C: 95.5%
Second compound 9.49 µM, first compound 0.000316 µM
  viability, T/C: 82.7%
Second compound 9.49 µM, first compound 0.001 µM
  viability, T/C: 88.9%
Second compound 9.49 µM, first compound 0.00316 µM
  viability, T/C: 82.7%
Second compound 9.49 µM, first compound 0.01 µM
  viability, T/C: 77%
Second compound 30 µM, first compound 31.6 pM
  viability, T/C: 88.2%
Second compound 30 µM, first compound 0.0001 µM
  viability, T/C: 85.3%
Second compound 30 µM, first compound 0.000316 µM
  viability, T/C: 91.4%
Second compound 30 µM, first compound 0.001 µM
  viability, T/C: 88.2%
Second compound 30 µM, first compound 0.00316 µM
  viability, T/C: 88.7%
Second compound 30 µM, first compound 0.01 µM
  viability, T/C: 70.2%
